Results published in PubChem BioAssay (NCI).
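All cell lines were grown in 96-well plates and treated with compound for 48 hours. TGI: total growth inhibition.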

Experiments:
Experiment in all cases: NCI tumour cell line growth inhibition, 48 h
786-0 renal = test system: 786-0 renal
A549 NSCLC = test system: A549 NSCLC
HCC-2998 colon = test system: HCC-2998 colon
MCF7 breast = test system: MCF7 breast
MDA-MB-231 breast = test system: MDA-MB-231 breast
NCI-H460 lung = test system: NCI-H460 lung
NCI/ADR-RES ovarian = test system: NCI/ADR-RES ovarian
SK-MEL-5 melanoma = test system: SK-MEL-5 melanoma
SK-OV-3 ovarian = test system: SK-OV-3 ovarian
TK-10 renal = test system: TK-10 renal
U251 CNS = test system: U251 CNS

SMILES	TGI (786-0 renal) [µM]	TGI (A549 NSCLC) [µM]	TGI (HCC-2998 colon) [µM]	TGI (MCF7 breast) [µM]	TGI (MDA-MB-231 breast) [µM]	TGI (NCI-H460 lung) [µM]	TGI (NCI/ADR-RES ovarian) [µM]	TGI (SK-MEL-5 melanoma) [µM]	TGI (SK-OV-3 ovarian) [µM]	TGI (TK-10 renal) [µM]	TGI (U251 CNS) [µM]
CCN(c1cccc(NC(=S)Nc2ccccc2N(CC)c2cc(-c3ccccc3)no2)c1)c1cc(-c2ccccc2)no1	> 100	> 100	> 100	> 100	> 100	> 100	> 100	> 100	> 100	> 100	> 100
CC1(O)OC(=O)C2=C1CCC1C2CCC2(C)C(O)CCC12 (stereo not given)	> 100	> 100	> 100	> 100	> 100	> 100	> 100	> 100	–	> 100	> 100
COC(=O)c1c(O)ccc2c1C1(Cc3ccccc3C1=O)C(O)O2 (stereo not given)	30.2	69.9	69.9	> 100	52.1	> 100	> 100	> 100	57.8	52.6	61.4
Brc1ccc(-c2cn3ccncc3n2)cc1	> 100	> 100	–	> 100	> 100	> 100	> 100	> 100	> 100	> 100	> 100
C/C(=C/CC[C@]1(CO)CC[C@]2(CO)[C@H](CC[C@@H]3[C@@]4(C)CC[C@H](OC5OCC(O)C(O)C5OC5OC(CO)C(O)C(O)C5O)C(C)(C)[C@@H]4CC[C@]32C)[C@H]1O)CO (stereo not given in full)	> 100	> 100	–	> 100	> 100	> 100	> 100	> 100	> 100	> 100	> 100
COc1cccc(N2C(=O)C3c4[nH]c5ccc(C)cc5c4C4CCC(C(C)(C)C)CC4C3C2=O)c1 (stereo not given)	–	> 10	> 10	> 10	> 10	4.43	9.27	> 10	> 10	> 10	> 10
CC(C)CN=C(N)N=C(N)N	> 100	> 100	> 100	> 100	> 100	> 100	> 100	> 100	> 100	> 100	> 100
CCOP(=O)(OCC)C(C)(CC)NC (stereo not given)	> 100	> 100	> 100	> 100	> 100	> 100	> 100	> 100	> 100	> 100	> 100
O=C1C[C@@H](c2ccccc2)O[C@@H](c2ccccc2)C1	> 100	> 100	> 100	> 100	> 100	> 100	> 100	> 100	> 100	–	> 100
C=CCOC(=O)C1C2OC3(C(C(=O)OC)=C2C(=O)OC)c2ccccc2CCC13 (stereo not given)	> 10	> 10	> 10	> 10	> 10	> 10	> 10	> 10	> 10	> 10	> 10
O=C(O)CNC(=O)c1c2ccccc2nc2ccccc12	> 100	> 100	> 100	> 100	> 100	> 100	> 100	> 100	> 100	> 100	> 100
Cc1ccc(/C(O)=C/C(=O)C(=O)NN=C(c2ccccc2)c2ccccc2)cc1	> 100	> 100	> 100	> 100	> 100	> 100	> 100	> 100	> 100	> 100	> 100
CC[C@@H](/C=C\CCC(=O)C[C@H](O)CCC=C(C)C)O[Si](C(C)C)(C(C)C)C(C)C	> 100	> 100	> 100	> 100	> 100	> 100	> 100	> 100	> 100	> 100	> 100
Cc1ccc2nc(NC(=O)/C(Cc3nc4ccc(Cl)cc4[nH]c3=O)=N\NC(C)(C)C)sc2c1	> 100	> 100	> 100	> 100	> 100	> 100	> 100	–	> 100	–	> 100
CC1=NN(C(=O)CSc2nc3ccc(I)cc3c(=O)n2Cc2ccccc2)C(=O)C1	> 100	> 100	> 100	61.3	> 100	> 100	58.3	55.2	77	> 100	67.4
CCN(CC)Cc1sc2nc3ccccc3n2c1-c1ccc(OC)cc1	> 100	> 100	> 100	> 100	> 100	–	90.8	–	> 100	> 100	> 100
Cc1cc(O)c(C(C)C)cc1C1(c2cc(C(C)C)c(O)cc2C)OC(=O)c2ccccc21	5.52	12.8	3.48	3.6	4.54	3.99	12	2.99	> 33.3	11.1	3.9
CCOC(=O)c1ccc(C(=O)C(C(C)=O)C(=O)OC(C)(C)C)[nH]1 (stereo not given)	> 100	> 100	> 100	> 100	> 100	> 100	> 100	> 100	> 100	–	> 100
CCC(c1c[nH]c2ccc(Br)cc12)c1c[nH]c2ccc(Br)cc12	11.2	15	5.73	15.5	25.4	6.82	13.3	26.8	24.1	22.9	13.3
c1ccc(CSCCc2ccncc2)cc1	> 100	> 100	> 100	> 100	> 100	> 100	> 100	> 100	> 100	> 100	> 100
